Reference: patent US20260258048A1, “LACTAM-CONTAINING IMIDAZOPYRIDAZINE IL-17 INHIBITOR COMPOUNDS” (Janssen Pharmaceutica NV, priority 2023, published 2026)

system: IL-17A-induced G-CSF production in human normal keratinocyte (NHK); assay: NHK assay: IL-17A-induced G-CSF production in normal human keratinocytes; assay type: cell-based; details: Homo sapiens, Keratinocyte, 24 h, IL-17A 5 ng/mL, class of the average IC50 where tested more than once
Experimental: IL-17A acts directly on keratinocytes through binding to dimeric receptor IL-17RA/RC and drives the production of a number of inflammatory mediators known to be elevated in psoriasis lesional tissue. IL-17A small molecule inhibitors that block the IL-17A to interact with IL-17R would inhibit the IL-17A signaling in its targeted cells such as keratinocytes. The compound functional activity is evaluated for its impact on IL-17A-induced G-CSF production in human normal keratinocyte (NHK).
Adult normal human keratinocytes are cultured in keratinocyte growth medium (Lonza) in a flask till reaching ~90% confluence, then cells are transferred to a 384-well plate at density of 3000-4000 cell/well. Recombinant human IL-17A (Gibco PHC9174) is pre-incubated with titrated compound or DMSO for 1 h at rt then added to the cell culture plate. The final concentration of IL-17A is 5 ng/mL and DMSO is 0.2%, in the culture containing 5% FBS. Cells are cultured/treated for 24 h at 37° C. Supernatants are collected and G-CSF production is measured through HTRF technology using Human G-CSF Kit (CisBio). G-CSF concentration was extrapolated from the standard curve and IC50 is determined using GraphPad Prism. Cell viability is also evaluated using CellTiter-Glo kit (Promega) and effect of compound on cell viability is compared to DMSO control.

First: O=C(N[C@H](c1cn2ncc(C[C@@H]3C(=O)NCC[C@H]3C(F)(F)F)cc2n1)C1CCC(F)(F)CC1)c1nonc1C1CC1 (relative stereo) [Example 3, 4-Cyclopropyl-N—[(S)-(4,4-difluorocyclohexyl)-[7-[[(3S*,4R*)-2-oxo-4-(trifluoromethyl)-3-piperidyl]methyl]imidazo[1,2-b]pyridazin-2-yl]methyl]-1,2,5-oxadiazole-3-carboxamide]
Second: O=C(N[C@H](c1cn2ncc(C[C@H]3C(=O)NCC[C@@H]3C(F)(F)F)cc2n1)C1CCC(F)(F)CC1)c1nonc1C1CC1 (relative stereo) [Example 4, 4-Cyclopropyl-N—[(S)-(4,4-difluorocyclohexyl)-[7-[[(3R*,4S*)-2-oxo-4-(trifluoromethyl)-3-piperidyl]methyl]imidazo[1,2-b]pyridazin-2-yl]methyl]-1,2,5-oxadiazole-3-carboxamide]
The IC50 of the first is higher: > 4 µM for the first, 0.4 to 4 µM for the second. The second is the more potent here.

First: O=C(N[C@H](c1cn2ncc(C[C@H]3CC[C@H](C(F)(F)F)NC3=O)cc2n1)C1CCC(F)(F)CC1)c1nonc1C1CC1 (relative stereo) [Example 29, 4-Cyclopropyl-N—((S)-(4,4-difluorocyclohexyl)(7-(((3R*,6R*)-2-oxo-6-(trifluoromethyl)piperidin-3-yl)methyl)imidazo[1,2-b]pyridazin-2-yl)methyl)-1,2,5-oxadiazole-3-carboxamide]
Second: O=C(N[C@H](c1cn2ncc(C[C@H]3CC[C@@H](C(F)(F)F)NC3=O)cc2n1)C1CCC(F)(F)CC1)c1nonc1C1CC1 (relative stereo) [Example 30, 4-Cyclopropyl-N—((S)-(4,4-difluorocyclohexyl)(7-(((3R*,6S*)-2-oxo-6-(trifluoromethyl)piperidin-3-yl)methyl)imidazo[1,2-b]pyridazin-2-yl)methyl)-1,2,5-oxadiazole-3-carboxamide]
The IC50 of the first is lower: 0.4 to 4 µM for the first, > 4 µM for the second. The first is the more potent here.

Compared with `O=C(N[C@H](c1cn2ncc(C[C@@H]3CC[C@H](C(F)(F)F)NC3=O)cc2n1)C1CCC(F)(F)CC1)c1nonc1C1CC1` (relative stereo) [Example 31, 4-Cyclopropyl-N—((S)-(4,4-difluorocyclohexyl)(7-(((3S*,6R*)-2-oxo-6-(trifluoromethyl)piperidin-3-yl)methyl)imidazo[1,2-b]pyridazin-2-yl)methyl)-1,2,5-oxadiazole-3-carboxamide], `O=C(N[C@H](c1cn2ncc(C[C@@H]3CC[C@@H](C(F)(F)F)NC3=O)cc2n1)C1CCC(F)(F)CC1)c1nonc1C1CC1` (relative stereo) [Example 32, 4-Cyclopropyl-N—((S)-(4,4-difluorocyclohexyl)(7-(((3S*,6S*)-2-oxo-6-(trifluoromethyl)piperidin-3-yl)methyl)imidazo[1,2-b]pyridazin-2-yl)methyl)-1,2,5-oxadiazole-3-carboxamide] is higher in IC50: < 0.4 µM for the first, > 4 µM for the second. The first is the more potent here.

Compared with `O=C(N[C@H](c1cn2ncc(C[C@H]3C[C@@H](C(F)(F)F)CNC3=O)cc2n1)C1CCC(F)(F)CC1)c1nonc1C1CC1` (relative stereo) [Example 33, 4-Cyclopropyl-N—((S)-(4,4-difluorocyclohexyl)(7-(((3R*,5R*)-2-oxo-5-(trifluoromethyl)piperidin-3-yl)methyl)imidazo[1,2-b]pyridazin-2-yl)methyl)-1,2,5-oxadiazole-3-carboxamide], `O=C(N[C@H](c1cn2ncc(C[C@H]3C[C@H](C(F)(F)F)CNC3=O)cc2n1)C1CCC(F)(F)CC1)c1nonc1C1CC1` (relative stereo) [Example 34, 4-Cyclopropyl-N—((S)-(4,4-difluorocyclohexyl)(7-(((3R*,5S*)-2-oxo-5-(trifluoromethyl)piperidin-3-yl)methyl)imidazo[1,2-b]pyridazin-2-yl)methyl)-1,2,5-oxadiazole-3-carboxamide] is higher in IC50: 0.4 to 4 µM for the first, > 4 µM for the second.

First: CC(C)(CC[C@H](NC(=O)c1nonc1C1CC1)c1cn2ncc([C@@H](O)[C@H]3C[C@@H](C(F)(F)F)NC3=O)cc2n1)C(F)(F)F (relative stereo) [Example 66, 4-Cyclopropyl-N—((S)-5,5,5-trifluoro-1-(7-((S*)-hydroxy((3R*,5S)-2-oxo-5-(trifluoromethyl)pyrrolidin-3-yl)methyl)imidazo[1,2-b]pyridazin-2-yl)-4,4-dimethylpentyl)-1,2,5-oxadiazole-3-carboxamide]
Second: CC(C)(CC[C@H](NC(=O)c1nonc1C1CC1)c1cn2ncc([C@@H](O)[C@@H]3C[C@@H](C(F)(F)F)NC3=O)cc2n1)C(F)(F)F (relative stereo) [Example 67, 4-Cyclopropyl-N—((S)-5,5,5-trifluoro-1-(7-((S*)-hydroxy((3S*,5S)-2-oxo-5-(trifluoromethyl)pyrrolidin-3-yl)methyl)imidazo[1,2-b]pyridazin-2-yl)-4,4-dimethylpentyl)-1,2,5-oxadiazole-3-carboxamide]
The IC50 of the first is lower: 0.4 to 4 µM for the first, > 4 µM for the second.

Compared with `C[C@@H]1C[C@@H](Cc2cnn3cc([C@@H](NC(=O)c4nonc4C4CC4)C4CCC(F)(F)CC4)nc3c2)C(=O)N1` (relative stereo) [Example 84, Cyclopropyl-N—((S)-(4,4-difluorocyclohexyl)(7-(((3R*,5R*)-5-methyl-2-oxopyrrolidin-3-yl)methyl)imidazo[1,2-b]pyridazin-2-yl)methyl)-1,2,5-oxadiazole-3-carboxamide], `CC[C@@H]1C[C@@H](Cc2cnn3cc([C@@H](NC(=O)c4nonc4C4CC4)C4CCC(F)(F)CC4)nc3c2)C(=O)N1` (relative stereo) [Example 90, 4-Cyclopropyl-N—[(S)-(4,4-difluorocyclohexyl)-[7-[[(3R*,5R*)-5-ethyl-2-oxo-pyrrolidin-3-yl]methyl]imidazo[1,2-b]pyridazin-2-yl]methyl]-1,2,5-oxadiazole-3-carboxamide] is lower in IC50: > 4 µM for the first, < 0.4 µM for the second.

First: C[C@H]1CNC(=O)[C@@H]1Cc1cnn2cc([C@@H](NC(=O)c3nonc3C3CC3)C3CCC(F)(F)CC3)nc2c1 (relative stereo) [Example 87, 4-Cyclopropyl-N—[(S)-(4,4-difluorocyclohexyl)-[7-[[(3R*,4R*)-4-methyl-2-oxo-pyrrolidin-3-yl]methyl]imidazo[1,2-b]pyridazin-2-yl]methyl]-1,2,5-oxadiazole-3-carboxamide]
Second: O=C(N[C@H](c1cn2ncc(CC3CC(C(F)(F)F)CNC3=O)cc2n1)C1CCC(F)(F)CC1)c1nonc1C1CC1 (single isomer, unassigned) [Example 35, 4-Cyclopropyl-N-((1S)-(4,4-difluorocyclohexyl)(7-(((3S*)-2-oxo-5-(trifluoromethyl)piperidin-3-yl)methyl)imidazo[1,2-b]pyridazin-2-yl)methyl)-1,2,5-oxadiazole-3-carboxamide]
The IC50 of the first is higher: > 4 µM for the first, 0.4 to 4 µM for the second.

`Cc1nonc1C(=O)N[C@@H](CCC(C)(C)C(F)(F)F)c1cn2ncc(C[C@H]3C[C@@H](C(F)(F)F)NC3=O)cc2n1` (single isomer, unassigned) [Example 37] and `C[C@@]1(C(F)(F)F)CC(Cc2cnn3cc([C@@H](NC(=O)c4nonc4C4CC4)C4CCC(F)(F)CC4)nc3c2)C(=O)N1` (single isomer, unassigned) [Example 55, 4-Cyclopropyl-N—((S)-(4,4-difluorocyclohexyl(7-(((3S*,5S)-5-methyl-2-oxo-5-(trifluoromethyl)pyrrolidine-3-yl)methyl)imidazo[1,2-b]pyrrolidin-2-yl)methyl)-1,2,5-oxadiazole-3-carboxamide] cannot be ordered by IC50: < 0.4 µM for the first, < 0.4 µM for the second.
